Assay results as given in PMC10897476, “Pyridylpiperazine efflux pump inhibitor boosts in vivo antibiotic efficacy against K. pneumoniae” (EMBO Molecular Medicine, 2023).
Several values for one entry are separate records, joined by “and”; a condition that tells them apart may be missing. Equal entries are not always repeated. Marks after values point to notes of the source that are not given here.

Columns and labels:
[1] = test system: K. pneumoniae RamR^mut (K124*stop); assay: MIC of antibiotics with and without EPI (REMA), RamR mutant; assay type: cell-based, Klebsiella pneumoniae; conditions: for Minimum Inhibitory Concentration: K. pneumoniae RamR^mut
Procedure: MIC experiments were carried out according to the CLSI guidelines (CLSI [2023]). Overnight cultures were diluted to an OD600 = 0.001 in CAMHB followed by addition of efflux pump inhibitors (EPIs) at a final concentration of 100 µM. […] Plates were incubated at 37 °C for up to 20 h. Bacterial viability was evaluated using the resazurin microtitre assay (REMA) and measured by fluorescence using a Tecan Spaert multimode plate reader (Ex: 530 nm Em: 590 nm). MICs were defined as the concentration that prevented 90% of resazurin turnover compared to the non-treated bacteria.
Mutations in acrB or ramR identified in the BDM88855.HCl (1’) resistant mutant (a.k.a., KPJC11) were introduced individually into K. pneumoniae ATCC 43816 chromosome by allelic exchange (Cianfanelli et al, [2020]). Briefly, 1-kb PCR products centred around each point mutation were generated by amplifying acrB with primers RH1251 ([…][…]) and RH1252 ([…][…]) or ramR with primers RH1249 ([…][…]) and RH1250 ([…][…]) from KPJC11 genomic DNA. PCR fragments were cloned into pFOK (Cianfanelli et al, [2020]) using NEB-building kit ([New England Biolabs]) to generate pEP1533 and pEP1534. Correct plasmids were confirmed by sequencing and introduced into K. pneumoniae ATCC43816 WT via conjugation with the MFDpir+ E. coli donor strain. Exconjugants were selected on kanamycin (50 mg/L) plates at 37 °C and plasmid chromosomal integration was checked by PCR. […] The next day, cultures were diluted and plated onto LB agar. Isolated colonies were then patched onto LB plates with or without kanamycin (50 mg/L) and Km^S candidates were evaluated for correct allelic exchange via acrB or ramR sequencing and then WGS to confirm no additional mutations were introduced.

K. pneumoniae ATCC 43816 = assay: K. pneumoniae mouse lung infection (lung CFU); assay type: in vivo, Klebsiella pneumoniae; conditions: for reduction in lung bacterial load compared to untreated mice: at 24 h
From the text: Mice experiments complied with national, institutional and European regulations and ethical guidelines, were in accordance with ARRIVE guidelines 2.0 and were approved by the Institutional Animal Care and Use Committee (animal facility agreement D59-350009, Institut Pasteur de Lille, protocol reference: APAFIS#25953, 2020060916081461_v2). Six to eight weeks old female C57BL/6JRj mice were purchased from Janvier Laboratories (Saint Berthevin, France), allocated into experimental groups in a random fashion and maintained in individually ventilated cages (Innorack® IVC Mouse 3.5) and handled in a vertical laminar flow biosafety cabinet (Class II Biohazard, Tecniplast). All infections were performed in an animal biosafety level 2 facility.
Inoculum was prepared as follows. Tryptic Soy broth was inoculated with K. pneumoniae from a frozen stock and grown overnight at 37 °C without shaking. 1 mL of this overnight bacterial culture was transferred to a warm fresh Tryptic Soy broth and grown at 37 °C until it reached the mid-log. Cells were pelleted, washed with PBS and resuspended to the appropriate concentration.
22 h post-infection, mice were treated with BDM91288 (5) (30 mg/kg, 200 µL, formulated in 10% hydroxypropyl-beta-cyclodextrine (Kleptose HP; Roquette) at 3 mg/mL) by intragastric route. […] At 4 h or 24 h post antibiotic treatment, mice were euthanized by cervical dislocation. Lungs were collected in 1 mL of PBS, homogenized with a T-25 digital Ultraturrax® (IKA). CFU counts were determined by plating serial dilutions onto Tryptic Soy agar plate.

[2] = Pharmacokinetics in mice in combination with levofloxacin (plasma, lung after BAL, ELF); assay type: in vivo, female CD-1 mice; conditions: female, CD-1, mouse, ELF and plasma, oral; higher than plasma; read-out: ELF exposure (AUC) relative to that measured in the plasma
Procedure: The concentration of compounds in plasma, lungs and ELF was measured after 2 h, 6 h and 24 h. […] After rodent sacrifice by cervical dislocation, bronchoalveolar lavage (BAL) fluid was collected using a cannula inserted into the trachea. 1 mL of PBS was introduced in lungs via the cannula and the collected BAL fluid was centrifuged (5 min, 3500 rpm, 4 °C). Supernatants were removed, their volume recorded, and samples stored at −80 °C until analysis.
Plasma and BAL fluid samples were thawed on ice.
The concentration of compound in ELF, [cpd]ELF, was calculated as follows: cpdELF=cpdBALxVBAL/VELF where [cpd]BAL is the measured concentration of compound in BAL fluid supernatant, VBAL and VELF, the volume of aspired BAL and the calculated volume of ELF, respectively.
The volume of ELF was calculated as follows: VELF=VBALxUreaBAL/UreaPlasma where VELF represents the apparent volume of ELF, VBAL is the volume of aspired BAL, and [Urea]BAL and [Urea]Plasma are concentration of urea in BAL fluid or plasma, respectively.
Concentrations of urea in plasma and in BAL fluid supernatant was measured using the UREA Nitrogen (BUN) colorimetric detection kit, according to the supplier procedural guidelines (Invitrogen).

C[C@H]1COc2c(N3CCN(C)CC3)c(F)cc3c(=O)c(C(=O)O)cn1c23 [Levofloxacin]
Minimum Inhibitory Concentration ([1]; + 100 µM 1'): 0.08^# mg/L | Minimum Inhibitory Concentration ([1]; + 100 µM 5): 0.05^# mg/L | Minimum Inhibitory Concentration ([1]; + 100 µM PAβN): 0.04^# mg/L | MIC ([1]; Klebsiella pneumoniae, read-out: Minimum Inhibitory Concentration): 0.64 µg/mL | CFU counts, lung, single animals (K. pneumoniae ATCC 43816; 4h post-treatment, levofloxacin 10mg/kg): 2830 CFU and 567 CFU and 1330 CFU and 3170 CFU and 3670 CFU and 1830 CFU and 4670 CFU and 7670 CFU and 717 CFU and 3330 CFU and 2170 CFU and 833 CFU and 2000 CFU and 500 CFU and 450 CFU and 150 CFU | CFU counts, lung, single animals (K. pneumoniae ATCC 43816; 4h post-treatment, levofloxacin 50mg/kg): 200 CFU and 50 CFU and 267 CFU and 16.7 CFU and 117 CFU and 350 CFU and 583 CFU and 450 CFU and 833 CFU and 1000 CFU and 133 CFU and 667 CFU and 1330 CFU and 1500 CFU and 1170 CFU and 367 CFU | CFU counts, lung, single animals (K. pneumoniae ATCC 43816; 24h post-treatment, levofloxacin 10mg/kg): 117 CFU and 83.3 CFU and 15300 CFU and 26700 CFU and 7500 CFU and 1000 CFU and 6330 CFU and 9170 CFU | CFU counts, lung, single animals (K. pneumoniae ATCC 43816; 24h post-treatment, levofloxacin 50mg/kg): 16.7 CFU and 167 CFU and 66.7 CFU and 50 CFU and 100 CFU and 83.3 CFU | reduction in lung bacterial load compared to untreated mice (K. pneumoniae ATCC 43816; single dose 10 mg/kg i.p.): 3.2 log | reduction in lung bacterial load compared to untreated mice (K. pneumoniae ATCC 43816; single dose 50 mg/kg i.p.): 5.9 log

Clc1cc2cc(N3CCNCC3)ccc2nc1N1CCNCC1 [compound 5]
EPI mediated antibiotic boosting, in words ([1]; K. pneumoniae-RamR^mut, Table 2): maintained | CFU counts, lung, single animals (K. pneumoniae ATCC 43816; 4h post-treatment, BDM91288 + levofloxacin 10mg/kg): 250 CFU and 1500 CFU and 667 CFU and 267 CFU and 483 CFU and 1830 CFU and 1670 CFU and 500 CFU and 1170 CFU and 517 CFU and 833 CFU and 383 CFU and 650 CFU and 550 CFU and 450 CFU and 2670 CFU and 3170 CFU and 1000 CFU and 583 CFU | CFU counts, lung, single animals (K. pneumoniae ATCC 43816; 4h post-treatment, BDM91288 alone): 433000 CFU and 400000 CFU and 533000 CFU and 817000 CFU and 13800000 CFU and 2670000 CFU and 5170000 CFU and 2330000 CFU and 550000 CFU and 700000 CFU and 1830000 CFU and 250000 CFU and 1030000 CFU and 600000 CFU and 1120000 CFU and 317000 CFU and 1380000 CFU and 167000 CFU and 2500000 CFU and 450000 CFU and 267000 CFU and 567000 CFU | CFU counts, lung, single animals (K. pneumoniae ATCC 43816; 24h post-treatment, BDM91288 + levofloxacin 10mg/kg): 16.7 CFU and 1500 CFU and 117 CFU and 200 CFU and 850 CFU and 517 CFU and 350 CFU and 683 CFU and 283 CFU | CFU counts, lung, single animals (K. pneumoniae ATCC 43816; 24h post-treatment, BDM91288 alone): 98300 CFU and 4500000 CFU and 26700000 CFU and 31700000 CFU and 28300000 CFU and 1650000 CFU and 18300000 CFU and 13300000 CFU and 10000000 CFU and 12300000 CFU and 6170000 CFU and 7000000 CFU and 20000000 CFU and 483000 CFU and 16700000 CFU | impact on the K. pneumoniae bacterial load in the lungs (K. pneumoniae ATCC 43816; single dose 30 mg/kg p.o., alone): no impact | Kp [2]: 2.3
